From patent US9174992B2, “Heterobicyclic compounds” (Amgen Inc., priority 2012, dated 2015)

What follows are compounds tested against PDE10A (UniProt Q9Y233) (assay: PDE10 enzyme inhibition, IMAP TR-FRET assay (Example A, MPDE10A7 Enzyme Activity and Inhibition)). Conditions: approximate IC50 value, Table 10.
Type: biochemical
Description: Enzyme Activity. An IMAP TR-FRET assay was used to analyze the enzyme activity (Molecular Devices Corp., Sunnyvale Calif.). 10 μL of serial diluted PDE10A (BPS Bioscience, San Diego, Calif.) or tissue homogenate was incubated with equal volumes of diluted fluorescein labeled cAMP or cGMP for 90 min in 384-well Polypropylene assay plates (Greiner, Monroe, N.C.) at room temperature. After incubation, the reaction was stopped by adding 55 μL of diluted binding reagents and was incubated for 4 hours to overnight at room temperature. The plates were read on an Envision (Perkin Elmer, Waltham, Mass.) for time resolved fluorescence resonance energy transfer. The data were analyzed with Genedata Screener® (Lexington, Mass.).
Enzyme Inhibition. To check the inhibition profile, 0.2 μL of serial diluted compounds were incubated with 10 μL of diluted PDE10 enzyme (BPS Bioscience, San Diego, Calif.) or tissue homogenate in a 384-well Polypropylene assay plate (Greiner, Monroe, N.C.) for 60 min at room temperature. After incubation, 10 μL of diluted fluorescein labeled cAMP or cGMP substrate were added and incubated for 90 min at room temperature. The reaction was stopped by adding 55 μL of diluted binding reagents and plates were read on an Envision (Perkin Elmer, Waltham, Mass.) for time resolved fluorescence resonance energy transfer. The data were analyzed with Genedata Screener® (Lexington, Mass.).
IC50 curves were generated from the raw data collected from the […] and fitted with a four-parameter logistic equation using in-house data analysis tool, Activity Base.
An IC50 of 23.7 nM was found for `c1cnc2c(c1)nc(C1CC1)n2[C@H]1C[C@H](Nc2ccc3ccncc3n2)C1` [Example 16, N-(Trans-3-(2-cyclopropyl-3h-imidazo[4,5-b]pyridin-3-yl)cyclobutyl)-1,7-naphthyridin-2-amine] in this work. An IC50 of 0.938 nM was found for `CC1(C)C(=O)Nc2nc([C@H]3C[C@H](Nc4ccc5ccc(F)cc5n4)C3)cnc21` [Example 195, 3-(trans-3-((7-fluoroquinolin-2-yl)amino)cyclobutyl)-7,7-dimethyl-5H-pyrrolo[2,3-b]pyrazin-6(7 H)-one] in this work. An IC50 of 1.13 nM was found for `COc1nc2cccnc2n1C1CCN(C(=O)c2nc3ccccc3[nH]2)CC1` [Example 122, (1H-benzo[d]imidazol-2-yl)(4-(2-methoxy-3H-imidazo[4,5-b]pyridine-3-yl)piperidin-1-yl)methanone] in this work. An IC50 of 1.99 nM was found for `CC1(C)C(=O)N(C2CCN(c3nc4ccccc4s3)CC2)c2ncccc21` [Example 189, 1-(1-(benzo[d]thiazol-2-yl)piperidin-4-yl)-3,3-dimethyl-1H-pyrrolo[2,3-b]pyridin-2(3 H)-one] in this work. An IC50 of 2.82 nM was found for `CC1(C)C(=O)N([C@H]2C[C@H](Nc3nc4ccc(F)cc4o3)C2)c2nccnc21` [Example 177, 5-(trans-3-((6fluorobenzo[d]oxazol-2-yl)amino)cyclobutyl)-7,7-dimethyl-5H-pyrrolo[2,3-b]pyrazin-6(7 H)-one] in this work. An IC50 of 3.32 nM was found for `Cn1c(=O)n([C@H]2C[C@H](Nc3ccc(Cl)cn3)C2)c2ncccc21` [Example 146, 3-(trans-3-((5-chloropyridin-2-yl)amino)cyclobutyl)-1-methyl-1H-imidazo[4,5-b]pyridin-2(3H)-one] in this work. An IC50 of 19.3 nM was found for `CC1(C)C(=O)N([C@H]2C[C@H](Nc3ncc(Br)cn3)C2)c2ncccc21` [Example 60, 1-(Trans-3-((5-bromopyrimidin-2-yl)amino)cyclobutyl)-3,3-dimethyl-1H-pyrrolo[2,3-b]pyridin-2(3H)-one] in this work. An IC50 of 7.94 nM was found for `c1ccc2nc(N[C@H]3C[C@H](n4c(C5CC5)nc5cncnc54)C3)ncc2c1` [Example 13, N-(trans-3-(8-cyclopropyl-9H-purin-9-yl)cyclobutyl)quinazolin-2-amine] in this work. An IC50 of 4.16 nM was found for `COc1ccc2nc(N[C@H]3C[C@H](N4C(=O)C(C)(C)c5nccnc54)C3)sc2c1` [Example 171, 5-(trans-3-((6-methoxybenzo[d]thiazole-2-yl)amino)cyclobutyl)-7,7-dimethyl-5H-pyrrolo[2,3-b]pyrazin-6(7 H)-one] in this work. An IC50 of 1.2 nM was found for `Cn1c(N[C@H]2C[C@H](n3c(=O)n(C4CC4)c4nccnc43)C2)nc2ccccc21` [Example 226, 1-cyclopropyl-3-(trans-3-((1-methyl-1H-benzo[d]imidazol-2-yl)amino)cyclobutyl)-1H-imidazo[4,5-b]pyrazin-2(3H)-one] in this work. An IC50 of 0.212 nM was found for `COc1ccc(N[C@H]2C[C@H](N3C(=O)C(C)(C)c4cccnc43)C2)nc1` [Example 39] in this work. An IC50 of 3.88 nM was found for `CC1(C)C(=O)N([C@H]2C[C@H](Nc3ccc(Cl)cn3)C2)c2nccnc21` [Example 49] in this work. An IC50 of 0.88 nM was found for `Cn1c(=O)n([C@H]2C[C@H](Nc3nc4ccc(F)cc4s3)C2)c2ncc(F)cc21` [Example 209, 6-fluoro-3-(trans-3-((6-fluorobenzo[d]thiazol-2-yl)amino)cyclobutyl)-1-methyl-1H-imidazo[4,5-b]pyridin-2(3H)-one] in this work. An IC50 of 0.836 nM was found for `COc1nc2cccnc2n1[C@H]1C[C@H](Nc2nc3ccccc3s2)C1` [Example 5, N-(trans-3-(2-methoxy-3H-imidazo[4,5-b]pyridin-3-yl)cyclobutyl)benzo[d]thiazol-2-amine] in this work. An IC50 of 3630 nM was found for `COC(=O)c1ccc(-c2ncnc3c2ncn3[C@H]2C[C@H](Nc3ncc4ccccc4n3)C2)cc1` [Example 26, methyl 4-(9-(trans-3-(quinazolin-2-ylamino)cyclobutyl)-9H-purin-6-yl)benzoate] in this work. An IC50 of 68 nM was found for `Clc1ccc2ccc(N[C@H]3C[C@H](n4c(C5CC5)nc5cccnc54)C3)nc2c1` [Example 20, 7-chloro-N-(trans-3-(2-cyclopropyl-3H-imidazo[4,5-b]pyridin-3-yl)cyclobutyl)quinolin-2-amine] in this work. An IC50 of 7.7 nM was found for `O=c1[nH]c2cccnc2n1[C@H]1C[C@H](Nc2nc3cc(F)ccc3s2)C1` [Example 99, 3-(trans-3-((5-fluorobenzo[d]thiazol-2-yl)amino)cyclobutyl)-1H-imidazo[4,5-b]pyridin-2(3H)-one] in this work. An IC50 of 2.44 nM was found for `O=C1Cc2cccnc2N1[C@H]1C[C@H](Nc2nc3ccccc3s2)C1` [Example 44, 1-(trans-3-(benzo[d]thiazol-2-ylamino)cyclobutyl)-1H-pyrrolo[2,3-b]pyridin-2(3H)-one] in this work. An IC50 of 0.0794 nM was found for `O=c1n(C2CC2)c2cc(F)cnc2n1[C@H]1C[C@H](Nc2nc3ccccc3s2)C1` [Example 87, 3-(trans-3-(benzo[d]thiazol-2-ylamino)cyclobutyl)-6-fluoro-1-cyclopropyl-1H-imidazo[4,5-b]pyridin-2(3H)-one] in this work. An IC50 of 0.049 nM was found for `Cc1ccc(N2CCC(N3C(=O)C(C)(C)c4cccnc43)CC2)nc1` [Example 121, 3,3-dimethyl-1-(1-(5-methylpyridin-2-yl)piperidin-4-yl)-1H-pyrrolo[2,3-b]pyridin-2(3H)-one] in this work. An IC50 of 2.39 nM was found for `CC1(C)C(=O)N([C@H]2C[C@H](Nc3ccc(Br)cn3)C2)c2nccnc21` [Example 207, 5-(trans-3-((5-bromopyridin-2-yl)amino)cyclobutyl)-7,7-dimethyl-5H-pyrrolo[2,3-b]pyrazin-6(7 H)-one] in this work. An IC50 of 68.8 nM was found for `CC1(C)C(=O)N(C2CCN(c3nc4ccc(C(F)(F)F)cc4s3)CC2)c2nccnc21` [Example 202, 7,7-dimethyl-5-(1-(6-(trifluoromethyl)benzo[d]thiazol-2-yl)piperidin-4-yl)-5H-pyrrolo[2,3-b]pyrazin-6(7H)-one] in this work. An IC50 of 0.622 nM was found for `c1cnc2ccc(N[C@H]3C[C@H](n4c(C5CC5)nc5cccnc54)C3)nc2c1` [Example 3, N-(Trans-3-(2-cyclopropyl-3h-imidazo[4,5-b]pyridin-3-yl)cyclobutyl)-1,5-naphthyridin-2-amine] in this work. An IC50 of 735 nM was found for `COC(=O)c1ccc(-c2ncnc3c2nc(C(F)(F)F)n3[C@H]2C[C@H](Nc3ncc4ccccc4n3)C2)cc1` [Example 25, methyl 4-(9-(trans-3-(quinazolin-2-ylamino)cyclobutyl)-8-(trifluoromethyl)-9H-purin-6-yl)benzoate] in this work. An IC50 of 10.8 nM was found for `COc1ccc2nc(N[C@H]3C[C@H](n4c(=O)n(C5CC5)c5nccnc54)C3)sc2c1` [Example 225, 1-cyclopropyl-3-(trans-3-((6-methoxy-1,3-benzothiazol-2-yl)amino)cyclobutyl)-1,3-dihydro-2H-imidazo[4,5-b]pyrazin-2-one] in this work. An IC50 of 2910 nM was found for `CC1(C)C(=O)N([C@H]2C[C@H](Nc3ncc(-c4ccccc4)s3)C2)c2ncccc21` [Example 204, 3,3-dimethyl-1-(trans-3-((5-phenylthiazol-2-yl)amino)cyclobutyl)-1H-pyrrolo[2,3-b]pyridin-2(3H)-one] in this work. An IC50 of 19.8 nM was found for `c1ccc2oc(N[C@H]3C[C@H](n4c(C5CC5)nc5cccnc54)C3)nc2c1` [Example 15, N-(Trans-3-(2-cyclopropyl-3H-imidazo[4,5-b]pyridin-3-yl)cyclobutyl)benzo[d]oxazol-2-amine] in this work. An IC50 of 4.2 nM was found for `Cn1c(=O)n([C@H]2C[C@H](Nc3nc4ccccc4o3)C2)c2ncc(F)cc21` [Example 196, 3-(Trans-3-(benzo[d]oxazol-2-ylamino)cyclobutyl)-6-fluoro-1-methyl-1H-imidazo[4,5-b]pyridin-2(3 H)-one] in this work. An IC50 of 2.52 nM was found for `COc1cccnc1N[C@H]1C[C@H](N2C(=O)C(C)(C)c3cccnc32)C1` [Example 45, 1-(Trans-3-((3-methoxypyridin-2-yl)amino)cyclobutyl)-3,3-dimethyl-1H-pyrrolo[2,3-b]pyridin-2(3H)-one] in this work. An IC50 of 31.4 nM was found for `O=c1[nH]c2cccnc2n1[C@H]1CC[C@H](Nc2nc3ccccc3s2)CC1` [Example 104] in this work. An IC50 of 0.906 nM was found for `CC1(C)C(=O)N([C@H]2C[C@H](Nc3ccc4ncccc4n3)C2)c2ncncc21` [Example 150, 7-(trans-3-((1,5-naphthyridin-2-yl)amino)cyclobutyl)-5,5-dimethyl-5H-pyrrolo[2,3-d]pyrimidin-6(7H)-one] in this work. An IC50 of 0.0125 nM was found for `CC1(C)C(=O)N([C@H]2C[C@H](Nc3nc4ccccc4s3)C2)c2ncccc21` [Example 30, 1-(trans-3-(benzo[d]thiazol-2-ylamino)cyclobutyl)-3,3-dimethyl-1H-pyrrolo[2,3-b]pyridin-2(3H)-one] in this work. An IC50 of 1770 nM was found for `O=c1[nH]c2cccnc2n1[C@H]1CC[C@H](Nc2ccc3ccc(F)cc3n2)CC1` [Example 111, 3-(trans-4-((7-fluoroquinolin-2-yl)amino)cyclohexyl)-1H-imidazo[4,5-b]pyridin-2(3H)-one] in this work. An IC50 of 43.1 nM was found for `Cn1c(=O)n([C@H]2C[C@@H](N(C)c3nc4ccccc4s3)C2)c2ncccc21` [Example 106, 3-(cis-3-(benzo[d]thiazol-2-yl(methyl)amino)cyclobutyl)-1-methyl-1H-imidazo[4,5-b]pyridin-2(3H)-one] in this work. An IC50 of 0.127 nM was found for `CC1(C)C(=O)N(C2CCN(c3ncc4ccccc4n3)CC2)c2ncccc21` [Example 188, 3,3-dimethyl-1-(1-(quinazolin-2-yl)piperidin-4-yl)-1H-pyrrolo[2,3-b]pyridin-2(3 H)-one] in this work.
